Assay results from PubChem BioAssay AID1361 (SRMLSC, 2008).
Calls of active or inactive are those of the source. How the calls were made is not given here.

Assay: blockers of mitochondrial fusion, WT vs mutant – cell-based, chemical genetic, wild-type and mutant, confirmation (AID 1361)
Conditions: Cell-based mitochondrial fusion phenotype, imaging
[1] = mutant cells, measured here: mutant cell line IC50

SMILES	IC50 (WT cells)	IC50 [1]
Brc1cnc(N2CCCCC2)nc1N1CCOCC1	> 25 µM (inactive)	> 25 µM
O=C(N=Nc1c(O)n(Cc2ccccc2)c2ccccc12)c1cc2ccccc2cc1O	> 25 µM (inactive)	> 25 µM
CC1CC(C)CN(C2CCN(Cc3cccnc3)CC2)C1 (centres undefined)	> 25 µM (inactive)	> 25 µM
CCc1ccccc1NC(=S)N=Nc1c(O)n(C)c2ccc(S(=O)(=O)N3CCOCC3)cc12	1.37 µM	9.5 µM
COc1ccccc1-n1cnc2sc(-c3ccccc3)cc2c1=O	> 25 µM (inactive)	> 25 µM
CC1CCCN(C(=O)CSc2nnc(-c3cccnc3)n2C2CCCCC2)C1 (centres undefined)	> 25 µM (inactive)	> 25 µM
CCc1ccc(-c2nn(-c3ccccc3)cc2CSC(=N)N)cc1	> 25 µM (inactive)	> 25 µM
COc1ccccc1N=Nc1nc(-c2ccccc2)c(-c2ccccc2)[nH]1	7.2 µM	17.4 µM
Clc1cncc(Cl)c1NNc1c2ccccc2nc2ccccc12	> 25 µM (inactive)	> 25 µM
CCc1ccc(CCC(=O)Nc2ccccc2C(=O)O)o1	> 25 µM (inactive)	> 25 µM
Cc1ccc2c(CSc3nnc(C4CC4)n3N)cc(=O)oc2c1C	> 25 µM (inactive)	> 25 µM
Clc1ccc(Cn2c(/C=C/c3ccco3)nc3ccccc32)cc1	12.6 µM	> 25 µM
CC1(C)CC(=O)C2=C(C1)N(c1ccc(F)cc1)C(=O)C2(O)C(F)(F)F (centres undefined)	> 25 µM (inactive)	> 12.5 µM
CCN(c1ccc2c(c1)OCO2)S(=O)(=O)c1cc(Br)cc2c1N(C(=O)C1CC1)CC2	13.3 µM	> 25 µM
CC1CC2(CCCC2)N(C(=O)c2ccccc2)Cc2ccccc21 (centres undefined)	24.9 µM (inactive)	> 25 µM
S=C(NCCNCc1ccccc1)NC1CCCCC1	13.6 µM	> 25 µM
CCc1ccc(OCC2c3cc(OC)c(OC)cc3CCN2C(=S)NC)cc1 (centres undefined)	> 25 µM (inactive)	> 25 µM
COc1ccc(-c2noc(CSc3nnc(Cc4ccccc4)n3-c3ccc(Cl)cc3)n2)cc1	16.1 µM	> 25 µM
O=C(c1ccc2c(c1)OCO2)N(Cc1cccs1)C1(C(=O)NC2CCCCC2)CCCCC1	> 25 µM (inactive)	> 25 µM
CCC(=O)Nc1ccc(Br)c(Cl)c1	> 25 µM (inactive)	> 25 µM
CSc1ccc(OC2CCCCC2NS(=O)(=O)c2ccc(Cl)cc2)cc1 (centres undefined)	16.2 µM	> 25 µM

SMILES	IC50 (WT cells)	IC50 [1]
CCc1cc(C(=O)Cc2ccc(F)cc2)c(O)cc1O	> 25 µM (inactive)	> 25 µM
Cc1cc(N2CCN(C(c3ccccc3)c3ccc(Cl)cc3)CC2)n2ncnc2n1 (centres undefined)	13.7 µM	22.3 µM
COC(=O)c1c(NC(=O)CN2CCC3(O)CCCCC3C2c2cc(OC)ccc2OC)sc(C)c1C (centres undefined)	8.13 µM	> 25 µM
O=c1c2ccccc2nc2n1C1(CCCCC1)Cc1ccccc1-2	23.4 µM	> 25 µM
COc1cc2c(cc1NC(=O)CSc1nc3ccccc3[nH]1)oc1ccccc12	11.2 µM	> 25 µM
O=C(c1ccccc1)c1cc(Cl)ccc1N1C(=O)C=CC1=O	> 25 µM (inactive)	> 25 µM
Cc1ccc(-n2cc(C(=O)c3ccc(F)cc3)nn2)cc1Cl	> 25 µM (inactive)	> 25 µM
COc1ccc(Br)cc1CN(C)CC(=O)Nc1cc(Cl)cc(Cl)c1	9.17 µM	22.1 µM
COc1ccc(-c2cc3nc(-c4ccccc4)cc(N4CCC(O)CC4)n3n2)cc1	> 25 µM (inactive)	> 25 µM
Cc1[nH][nH]c(=O)c1C(c1c(C)[nH][nH]c1=O)c1cn(Cc2ccc(Cl)c(Cl)c2)c2ccccc12	5.68 µM	> 25 µM
O=c1ccccn1Cc1c(Cl)cccc1Cl	> 25 µM (inactive)	> 25 µM
CCOc1ccc(-c2[nH]ncc2Oc2ccccc2OCC)c(O)c1	> 25 µM (inactive)	> 25 µM
O=C(N1CCOCC1)N1CCN(C(c2ccccc2)c2ccccc2)CC1	> 25 µM (inactive)	> 25 µM
Cc1nnc(NC(=O)c2sc3nc(-c4cccs4)cc(C(F)(F)F)c3c2N)s1	> 25 µM (inactive)	> 25 µM
COc1ccc(-c2nc(-c3ccccc3)[nH]c(=O)c2C#N)cc1	> 25 µM (inactive)	> 25 µM
CC(C)CCN(C(=S)Nc1cccc(F)c1)C(C)c1cccs1 (centres undefined)	19.4 µM	> 25 µM
COc1ccccc1CNC(=O)c1ccccc1OCc1ccc(F)cc1	21.8 µM	> 25 µM
O=C1CCCCC1C(Nc1ccc(Br)cc1)c1ccccc1 (centres undefined)	20.5 µM	> 25 µM
COCCn1c(CN2CCC(Cc3ccccc3)CC2)nc2c1c(=O)n(C)c(=O)n2C	> 25 µM (inactive)	> 25 µM
CCC(C)(C)NC(=O)C(c1ccc(C)cc1)N(Cc1cccs1)C(=O)c1ccc2c(c1)OCCO2 (centres undefined)	14.1 µM	> 25 µM
COc1ccc(Cn2nc(-c3ccccc3)c(N3CCCCC3)cc2=O)cc1	10.3 µM	> 25 µM

SMILES	IC50 (WT cells)	IC50 [1]
O=[N+]([O-])c1cc(C(F)(F)F)ccc1NCCc1c[nH]c2ccccc12	13.4 µM	18.9 µM
O=C(OC(c1ccc(NS(=O)(=O)c2ccccc2)cc1)(C(F)(F)F)C(F)(F)F)c1ccccc1	18.2 µM	> 25 µM
CCn1ccnc1CN1CCc2c([nH]c3ccccc23)C1CC(C)C (centres undefined)	> 25 µM (inactive)	> 25 µM
C=CCNC1=C(Cl)C(=O)N(c2cccc(Cl)c2Cl)C1=O	> 25 µM (inactive)	> 25 µM
CCOc1ccc(Br)cc1C1C(C(=O)OC)=C(N)Oc2cc(N(C)C)ccc21 (centres undefined)	11.7 µM	> 25 µM
Cc1cccc(Cn2nc(-n3cccc3)c3c(C)cc(C)nc32)c1	> 25 µM (inactive)	> 25 µM
Cc1nn(Cc2ccccc2Cl)c(C)c1NC(=O)NC12CC3CC(CC(C3)C1)C2	> 25 µM (inactive)	> 25 µM
O=C(CCc1ccccc1)NC(=S)Nc1cccc(Br)c1	13.7 µM	21.4 µM
COC(=O)CNC(=O)CNC(=O)c1nn(-c2ccc(OC)c(Cl)c2)c(=O)c2ccccc12	> 25 µM (inactive)	> 25 µM
Cn1c(CN2CCCCC2)nc2cc(NC(=O)c3ccc(Cl)cc3)ccc21	> 25 µM (inactive)	> 25 µM
CCc1nnc(NC(=O)c2cccc(C(=O)Nc3nnc(CC)s3)n2)s1	23.8 µM	> 25 µM
CNC(=S)NCCC(c1ccccc1)c1ccccc1	> 25 µM (inactive)	> 25 µM
COc1ccc(NC(=S)NCCC(c2ccccc2)c2ccccc2)c(OC)c1	7.67 µM	> 25 µM
Cc1nn(-c2ccccc2)c(C)c1C(=O)OCC(=O)N1CCN(S(=O)(=O)c2ccccc2)CC1	> 25 µM (inactive)	> 25 µM
N#CC1=C(N)SC(N)=C(C#N)C1c1c(Cl)cccc1Cl	> 25 µM (inactive)	> 25 µM
Cc1ccc(CNC(=O)CCNC(=O)c2ccco2)cc1	> 25 µM (inactive)	> 25 µM
CCOC(=O)c1c(NC(=O)C2CCN(S(=O)(=O)c3cccs3)CC2)sc(C)c1C	> 25 µM (inactive)	> 25 µM
CCCOP(=O)(OCCC)C(Nc1cccc(C(F)(F)F)c1)c1ccc(C)cc1 (centres undefined)	11.2 µM	> 25 µM
Cc1ccc(O)c(C(=O)/C=C/c2ccc3c(c2)OCCCO3)c1	12.3 µM	> 25 µM
Cc1sc(NC(=O)c2ccco2)c(C(c2ccc(F)cc2)N2CCN(C)CC2)c1C (centres undefined)	14.4 µM (inactive)	> 12.5 µM
C/C(=N\N1CCCCC1c1cccnc1)c1c(O)n(C2CCCCC2)c(=S)[nH]c1=O (centres undefined)	> 25 µM (inactive)	> 25 µM

SMILES	IC50 (WT cells)	IC50 [1]
CCC1CCCCN1c1cc(C)nc2cc(-c3cccc(C)c3)nn12 (centres undefined)	13.1 µM	> 25 µM
CC1(C)CC(=O)C(C=NCc2cccnc2)=C(O)C1	> 25 µM (inactive)	> 25 µM
CC12CC3(C)CC(C)(C1)CC(C(=O)NC(=S)NC(C)(C)C)(C2)C3	11.6 µM	> 25 µM
Cc1c(C)c2cc(Cl)c(O)c(CN3CCCC(C)C3)c2oc1=O (centres undefined)	> 25 µM (inactive)	> 25 µM
O=C(Cc1c(O)c2ccccc2[nH]c1=O)NCc1ccccc1F	> 25 µM (inactive)	> 25 µM
CCOC(=O)c1c(NC(=O)c2cccs2)sc2c1CCCC2	> 25 µM (inactive)	> 25 µM
CC(C)(O)[C@H]1O[C@H]2CC[C@@]3(C)[C@@](O)(CC[C@H]4Cc5c([nH]c6ccccc56)[C@@]43C)C2=CC1=O	11.2 µM	> 25 µM
Fc1ccc(C(CCCn2nnc(-c3cccnc3)n2)c2ccc(F)cc2)cc1	21.9 µM	> 25 µM
N#Cc1ccc(NC(=O)Nc2ccc(Cl)cc2)cc1	9.83 µM	13.6 µM
CCn1c(CCCOc2ccc(Cl)cc2Cl)nnc1SCC(=O)Nc1cc(F)ccc1C	15.9 µM	> 25 µM
COc1ccc(-c2nc3n(c(=O)c2C#N)CCCS3)cc1	> 25 µM (inactive)	> 25 µM
CCCC/C(C)=C/[C@@H](NP(=O)(c1ccccc1)c1ccccc1)c1ccccc1	9.84 µM	> 25 µM
COC(=O)c1cn(N(C)c2ncc(C(F)(F)F)cc2Cl)c(=O)c2ccccc12	15.8 µM (inactive)	15.5 µM
CN(C)c1ncc(S(=O)(=O)c2ccc(Cl)cc2)c(-c2ccc(Cl)cc2Cl)n1	9.56 µM	15.3 µM
Cc1cccc(NC(=S)N/N=C/c2ccc3c(c2)OCO3)c1	> 25 µM (inactive)	> 25 µM
Cc1[nH][nH]c(=O)c1C(c1c(C)[nH][nH]c1=O)c1cn(Cc2ccccc2Cl)c2ccccc12	> 25 µM (inactive)	> 25 µM
C/C(=N\NC(=S)NCc1ccccc1)c1ccc2ccccc2c1OC(F)F	7.44 µM	25 µM
CC1(C)C(=O)OC(c2cccn2-c2cccc([N+](=O)[O-])c2)C2(CCCCC2)C1=O (centres undefined)	9.07 µM	11.1 µM
N#Cc1c(NC(=S)NC(=O)C2CCCC2)sc2c1CCCCC2	10.5 µM	> 25 µM
